Assay results: paper PMC4726260, “Combined ligand-observe ^19F and protein-observe ^15N,^1H-HSQC NMR suggests phenylalanine as the key Δ-somatostatin residue recognized by human protein disulfide isomerase” (Scientific Reports, 2016)
Non-standard residues stand in square brackets, D forms with d. Residues, ends and D or L forms follow the SMILES beside them. No end group written: not given here. Phe(4-F) = N[C@@H](Cc1ccc(F)cc1)C(=O)O

T1: hPDI b’x (Homo sapiens, UniProt P07237)
T1 construct: There is also a short 19 amino acid x-linker region between the b’ and a’ domains; made in house; host or cells: E. coli
T1 sequence (P07237 230-368 limits assumed): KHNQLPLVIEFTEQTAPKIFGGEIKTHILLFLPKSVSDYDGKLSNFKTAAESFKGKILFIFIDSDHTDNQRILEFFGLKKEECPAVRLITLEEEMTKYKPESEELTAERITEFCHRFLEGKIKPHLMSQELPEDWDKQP

B1: F1 Δ-som (peptide)
peptide: AGSKN[Phe(4-F)]FWKTFTSS
B2: Phe6,7 → Ala Δ-som (peptide)
peptide: AGSKNAAWKTFTSS
B3: Phe7,11 → Ala Δ-som (peptide)
peptide: AGSKNFAWKTATSS
B4: Δ-somatostatin (peptide)
peptide: AGSKNFFWKTFTSS
B5: Phe11 → Ala Δ-som (peptide)
peptide: AGSKNFFWKTATSS
B6: Phe7 → Ala Δ-som (peptide)
peptide: AGSKNFAWKTFTSS
B7: Phe6 → Ala Δ-som (peptide)
peptide: AGSKNAFWKTFTSS
B8: F3 Δ-som (peptide)
peptide: AGSKNFFWKT[Phe(4-F)]TSS
B9: Phe6,11 → Ala Δ-som (peptide)
peptide: AGSKNAFWKTATSS
B10: F2 Δ-som (peptide)
peptide: AGSKNF[Phe(4-F)]WKTFTSS
B11: F1,2,3 Δ-som (peptide)
peptide: AGSKN[Phe(4-F)][Phe(4-F)]WKT[Phe(4-F)]TSS

What follows are molecules tested against T1, hPDI b’x (assay: Protein-observe 15N,1H-HSQC NMR titration (chemical shift perturbation, Kd)). Details: 0.25 mM 15N b’x; 310 K; pH 7.0; resonance shifts throughout the titration.
Type: binding
Protocol: (§1) NMR titrations were carried out by collecting ^19F NMR spectra (at a constant peptide concentration of 0.15 mM) and ^15N,^1H-HSQC spectra (at a constant protein concentration of 0.25 mM). This provided binding perspectives from both peptide and protein. ^19F NMR data provided precise curve fits of equation (1) with Kd values in agreement with those obtained by ^15N NMR (Table 1). […] Triple fluorinated peptide spectra are shown in Fig. 4 with example Kd graphs plotted using chemical shift change against b’x concentration (see Supplementary Information SV for single fluorinated peptide ^19F spectra).
(§2) All spectra were collected using a 4-channel, 5-amplifier Bruker Avance III 14.1 T (600 MHz ^1H) NMR spectrometer equipped with a 5 mm QCI-F cryoprobe. ^15N,^1H-HSQC spectra were acquired over 45 min on samples containing 0.25 mM b’x and varying peptide concentrations. Each ^19F 1D spectrum was acquired over 60 min on samples of 0.15 mM Δ-som with varying protein concentration. Ratios of the variable:static components in each experiment were 1:4, 1:2, 1:1, 1.5:1, 2:1 and 2.5:1. All samples were run at 310 K in 20 mM sodium phosphate buffer (pH 7.0) containing 50 mM NaCl, 5% D6-DMSO, 5% ^2H2O and 0.05% sodium azide. 1D NMR data were processed using Bruker Topspin software and referenced using the position of trifluoroacetic acid (−76.55 ppm). 2D data were processed using NMRPipe[31] and analysed using the CCPN Analysis software package.
Amide chemical shifts were calculated in Hz as √[(0.6Δ^1H)^2 + (Δ^15N)^2]. Dissociation constants (Kd) for each shifting peak were calculated by plotting the chemical shift perturbation (Hz) against ligand concentration (mM) and fitting the curve to the equation: […]
(§3) where Δobs is the observed chemical shift perturbation, Δmax the maximum chemical shift perturbation and [P] and [L] the protein and ligand concentrations respectively. This equation was used to fit both ^15N and ^19F NMR data using KaleidaGraph 4.0 (Synergy Software). Standard errors from the Levenberg-Marquardt fitting routine were taken as the uncertainties. We determined Kd from ^15N,^1H HSQC NMR data using two approaches: First, by simultaneous fitting all shifts which are averaged to create a single plot, which is considered an accurate method of Kd determination. Second, we tracked and fitted each peak individually to the equation above and averaged all results and errors across all fits. […] This hPDI system creates Kd values with shallow binding curve where errors where average chemical shifts reduce fitting accuracy and individual fitting produces higher resoltuion. Therefore, we used Kd values from the averaged individual fit method within this paper to report smaller errors.

“AGSKNAAWKTATSS [Phe6,7,11 → Ala Δ-som, triple Phe → Ala peptide of Δ-som]” was tested, and the “Binding classification from 15N,1H-HSQC titration series” value was “non-binding”.
“RERQIKKQTALVELV [helix-28 from human serum albumin, helix-28 from human serum albumin (…), reference compound]” was tested, and the “Binding classification from 15N,1H-HSQC titration series” value was “non-binding”.

Same assay, conditions: 15N,1H-HSQC; 0.25 mM 15N b’x; shifts did not map to the ligand binding site

For “AGSKNAAWKTATSS [Phe6,7,11 → Ala Δ-som, triple Phe → Ala peptide of Δ-som]”, the “Chemical shifts identified at the end point of the titration” value was under 0.01 ppm.

Same assay, conditions: 15N,1H-HSQC; constant 0.25 mM 15N b’x, varying peptide (ratios 1:4 to 2.5:1); 310 K (37 °C); 20 mM sodium phosphate pH 7.0, 50 mM NaCl, 5% D6-DMSO; average of individual residue fits; ± standard error of Levenberg-Marquardt fit

For “AGSKNAAWKTATSS [Phe6,7,11 → Ala Δ-som, triple Phe → Ala peptide of Δ-som]”, the “Dissociation constant (Kd), PROTEIN 15N/1H Tracked” value was “Non binding”.

Same assay, conditions: 15N,1H-HSQC; constant 0.25 mM 15N b’x, varying peptide (ratios 1:4 to 2.5:1); 310 K (37 °C); 20 mM sodium phosphate pH 7.0, 50 mM NaCl, 5% D6-DMSO; average of individual residue fits; ± standard error of Levenberg-Marquardt fit; read-out: Dissociation constant (Kd), PROTEIN 15N/1H Tracked

C[C@H](N)C(=O)NCC(=O)N[C@@H](CO)C(=O)N[C@@H](CCCCN)C(=O)N[C@@H](CC(N)=O)C(=O)N[C@@H](Cc1ccc(F)cc1)C(=O)N[C@@H](Cc1ccccc1)C(=O)N[C@@H](Cc1c[nH]c2ccccc12)C(=O)N[C@@H](CCCCN)C(=O)N[C@H](C(=O)N[C@@H](Cc1ccccc1)C(=O)N[C@H](C(=O)N[C@@H](CO)C(=O)N[C@@H](CO)C(=O)O)[C@@H](C)O)[C@@H](C)O [F1 Δ-som] (H-AGSKN[Phe(4-F)]FWKTFTSS-OH) and AGSKNAAWKTFTSS [Phe6,7 → Ala Δ-som] are within error of each other in Kd: 61 ± 47 µM for the first, 242 ± 177 µM for the second.

Compared with AGSKNAFWKTATSS [Phe6,11 → Ala Δ-som], AGSKNAFWKTFTSS [Phe6 → Ala Δ-som] is 2.9-fold lower in Kd: 587 ± 174 µM for the first, 199 ± 100 µM for the second. The second binds more tightly here.

AGSKNFAWKTATSS [Phe7,11 → Ala Δ-som] and AGSKNFAWKTFTSS [Phe7 → Ala Δ-som] are within error of each other in Kd: 412 ± 219 µM for the first, 123 ± 96 µM for the second.

Going from AGSKNFFWKTATSS [Phe11 → Ala Δ-som] to AGSKNFFWKTFTSS [Δ-som, Δ-somatostatin], the Kd falls from 261 ± 101 µM to 103 ± 47 µM (2.5-fold).

These molecules were tested against T1, hPDI b’x (assay: Ligand-observe 19F NMR titration (chemical shift change vs b’x concentration, Kd)). Details: 19F 1D NMR; constant 0.15 mM singly fluorinated peptide, varying b’x; 310 K; 20 mM sodium phosphate pH 7.0, 50 mM NaCl, 5% D6-DMSO; ± standard error of fit; read-out: Dissociation constant (Kd), LIGAND 19F Tracked (Single-F).
Type: binding
Protocol: as §1, §2, §3

Work on C[C@H](N)C(=O)NCC(=O)N[C@@H](CO)C(=O)N[C@@H](CCCCN)C(=O)N[C@@H](CC(N)=O)C(=O)N[C@@H](Cc1ccc(F)cc1)C(=O)N[C@@H](Cc1ccccc1)C(=O)N[C@@H](Cc1c[nH]c2ccccc12)C(=O)N[C@@H](CCCCN)C(=O)N[C@H](C(=O)N[C@@H](Cc1ccccc1)C(=O)N[C@H](C(=O)N[C@@H](CO)C(=O)N[C@@H](CO)C(=O)O)[C@@H](C)O)[C@@H](C)O [F1 Δ-som] (H-AGSKN[Phe(4-F)]FWKTFTSS-OH) yielded a Kd of 109 ± 13 µM.

The molecules below were run against human protein disulphide isomerase (hPDI) fragment b'x (human) (assay: NMR titration; protein-observed 15N,1H-HSQC; 0.25 mM 15N b'x constant, peptide titrated (ratios 1:4 to 2.5:1); 310 K; 20 mM sodium phosphate pH 7.0, 50 mM NaCl, 5% D6-DMSO, 5% 2H2O, 0.05% sodium azide; Kd is the average of the fits of the individual shifting peaks). Details: not given.

Compared with B1, B2 is 4-fold higher in Kd: 61 µM for the first, 242 µM for the second.

First: B3
Second: B4
The Kd of the first is 4-fold higher: 412 µM for the first, 103 µM for the second.

Compared with B5, B6 is 2.1-fold lower in Kd: 261 µM for the first, 123 µM for the second.

Compared with B7, B8 is 2.4-fold lower in Kd: 199 µM for the first, 84 µM for the second.

First: B9
Second: B10
The Kd of the first is 12-fold higher: 587 µM for the first, 51 µM for the second.

Work on B11 yielded a Kd of 48 µM.
